# Data published in patent US4698350A, “1-ethyl-6-fluoro-1,4-dihydro- 7-(2,6-dimethyl-4-pyridinyl)-4-oxo-3-quinolinecarboxylic acid and antibacterial use thereof” (Sterling Drug Inc., priority 1984, dated 1987).
# Counter-ions that a name gives are not always drawn. Like-named read-outs stand apart in the source and are kept apart here.
# Tests used:
# S. aureus 21-81A = experiment: In vitro antibacterial MIC/MBC test; type: cell-based; settings: Staphylococcus aureus, 2181A
# Method: (§1) Win 52,522 and Win 35,439 were solubilized in 0.1 ml of 0.5 N NaOH/mg of compound and diluted in sterile distilled water to 160 mcg/ml. Vancomycin and methicillin were solubilized in sterile distilled water to 1250 mcg/ml of base compound. The stock solutions were sterilized by filtration through membrane filters with a 0.45 μm pore size.
# (§2) The bacterial cultures listed in Table I (hereinbelow) were grown overnight at 37° C. in MHB for all cultures except the Streptococcus strains. These were grown in BHI+10% NHS. The overnight broth cultures were adjusted to an optical density of 0.10 (650 nm, B L Spectronic 20) in sterile distilled water and subsequently diluted to 6.7×10^6 cells/ml in MHB or BHI+1% NHS.
# (§3) Serial two-fold dilutions of the compound solutions were prepared in MHB (or in BHI+1% NHS for tests with Streptococci) and dispensed into 96-well microtiter trays in a volume of 0.1 ml/well using a Sandy Springs (Bellco Glass Co.) dispenser. The trays were then inoculated with 0.0015 ml of a suspension containing 6.7×10^6 cells/ml of the appropriate inoculum using a MIC-2000 inoculator (Dynatech Corp.) resulting in a final inoculum of approximately 1×10^4 cells/well or 1×10^5 cells/ml. The trays were incubated at 37° C. for 18-20 hours and the minimal inhibitory concentration (MIC), defined as the lowest concentration of compound to inhibit visible bacterial growth, was recorded.
# (§4) After the MIC values were recorded, the contents in the microtiter trays were thoroughly mixed on a Bellco Mini-orbital Shaker (Bellco Glass Co.) for 3 min. at a setting of 8. A portion (0.0015 ml) from each well was then transferred via an MIC-2000 inoculator to plates containing MHA or BHI agar+10% NHS. The plates were incubated at 37° C. for 18-20 hrs. The minimal bactericidal concentration (MBC), defined as the lowest concentration of compound that prevented the formation of a recognizable colony on the agar surface, was recorded.
# S. epidermidis 2-1-B = experiment: In vitro antibacterial MIC/MBC test; type: cell-based; settings: Staphylococcus epidermidis, 21B
# Method: as §1, §2, §3, §4
# S. aureus 41-81 = experiment: In vitro antibacterial MIC/MBC test; type: cell-based; settings: Staphylococcus aureus, 4181
# Method: as §1, §2, §3, §4
# S. aureus 4-81 = experiment: In vitro antibacterial MIC/MBC test; type: cell-based; settings: Staphylococcus aureus, 481
# Method: as §1, §2, §3, §4
# S. epidermidis (12228) = experiment: In vitro antibacterial MIC/MBC test; type: cell-based; settings: Staphylococcus epidermidis, ATCC12228
# Method: as §1, §2, §3, §4
# S. aureus VA16951 = experiment: In vitro antibacterial MIC/MBC test; type: cell-based; settings: Staphylococcus aureus
# Method: as §1, §2, §3, §4
# S. pneumoniae Type I = experiment: In vitro antibacterial MIC/MBC test; type: cell-based; settings: Streptococcus pneumoniae
# Method: as §1, §2, §3, §4
# S. faecalis (8043) = experiment: In vitro antibacterial MIC/MBC test; type: cell-based; settings: Enterococcus faecalis, ATCC8043
# Method: as §1, §2, §3, §4
# S. faecalis 4510 = experiment: In vitro antibacterial MIC/MBC test; type: cell-based; settings: Enterococcus faecalis
# Method: as §1, §2, §3, §4
# S. aureus (25923) = experiment: In vitro antibacterial MIC/MBC test; type: cell-based; settings: Staphylococcus aureus, ATCC25923
# Method: as §1, §2, §3, §4
# S. aureus Smith = experiment: In vitro antibacterial MIC/MBC test; type: cell-based; settings: Staphylococcus aureus
# Method: as §1, §2, §3, §4
# S. epidermidis 1-3-H = experiment: In vitro antibacterial MIC/MBC test; type: cell-based; settings: Staphylococcus epidermidis, 13H
# Method: as §1, §2, §3, §4
# S. aureus S-234 = experiment: In vitro antibacterial MIC/MBC test; type: cell-based; settings: Staphylococcus aureus, S234
# Method: as §1, §2, §3, §4
# S. aureus 39881 = experiment: In vitro antibacterial MIC/MBC test; type: cell-based; settings: Staphylococcus aureus
# Method: as §1, §2, §3, §4
# S. aureus 13-8-A = experiment: In vitro antibacterial MIC/MBC test; type: cell-based; settings: Staphylococcus aureus, 138A
# Method: as §1, §2, §3, §4
# S. pyogenes 7948-15 = experiment: In vitro antibacterial MIC/MBC test; type: cell-based; settings: Streptococcus pyogenes, 794815
# Method: as §1, §2, §3, §4
# S. epidermidis (17917) = experiment: In vitro antibacterial MIC/MBC test; type: cell-based; settings: Staphylococcus epidermidis, ATCC17917
# Method: as §1, §2, §3, §4
# S. aureus 24-81 = experiment: In vitro antibacterial MIC/MBC test; type: cell-based; settings: Staphylococcus aureus, 2481
# Method: as §1, §2, §3, §4
# S. aureus 59-81 = experiment: In vitro antibacterial MIC/MBC test; type: cell-based; settings: Staphylococcus aureus, 5981
# Method: as §1, §2, §3, §4
# S. enterococcus 0-2-13 = experiment: In vitro antibacterial MIC/MBC test; type: cell-based; settings: 0213
# Method: as §1, §2, §3, §4
# S. edidermidis = experiment: In vitro MIC/MBC summary (Table II); type: cell-based, S. epidermidis; settings: Staphylococcus epidermidis; for MIC: read-out: MIC Range
# Method: as §1, §2, §3, §4
structure (smiles),measurement,setting,value
CN[C@H](CC(C)C)C(=O)N[C@H]1C(=O)N[C@@H](CC(N)=O)C(=O)N[C@H]2C(=O)N[C@H]3C(=O)N[C@H](C(=O)N[C@H](C(=O)O)c4cc(O)cc(O)c4-c4cc3ccc4O)[C@H](O)c3ccc(c(Cl)c3)Oc3cc2cc(c3O[C@@H]2O[C@H](CO)[C@@H](O)[C@H](O)[C@H]2O[C@H]2C[C@](C)(N)[C@H](O)[C@H](C)O2)Oc2ccc(cc2Cl)[C@H]1O [Vancomycin],MBC,S. aureus 21-81A,1 µg/mL
same,MIC,S. aureus 21-81A,0.5 µg/mL
same,MBC,S. epidermidis 2-1-B,2 µg/mL
same,MIC,S. epidermidis 2-1-B,1 µg/mL
same,MBC,S. aureus 41-81,1 µg/mL
same,MIC,S. aureus 41-81,1 µg/mL
same,MBC,S. aureus 4-81,0.5 µg/mL
same,MIC,S. aureus 4-81,0.5 µg/mL
same,MBC,S. epidermidis (12228),1 µg/mL
same,MIC,S. epidermidis (12228),1 µg/mL
same,MBC,S. aureus VA16951; VA16951,1 µg/mL
same,MIC,S. aureus VA16951; VA16951,1 µg/mL
same,MBC,S. pneumoniae Type I,16 µg/mL
same,MIC,S. pneumoniae Type I,16 µg/mL
same,MBC,S. faecalis (8043),> 125 µg/mL
same,MIC,S. faecalis (8043),1 µg/mL
same,MBC,S. faecalis 4510; 4510,> 125 µg/mL
same,MIC,S. faecalis 4510; 4510,2 µg/mL
same,MBC,S. aureus (25923),1 µg/mL
same,MIC,S. aureus (25923),1 µg/mL
same,MBC,S. aureus Smith,1 µg/mL
same,MIC,S. aureus Smith,1 µg/mL
same,MBC,S. epidermidis 1-3-H,1 µg/mL
same,MIC,S. epidermidis 1-3-H,1 µg/mL
same,MBC,S. aureus S-234,1 µg/mL
same,MIC,S. aureus S-234,1 µg/mL
same,MBC,S. aureus 39881; 39881,1 µg/mL
same,MIC,S. aureus 39881; 39881,1 µg/mL
same,MBC,S. aureus 13-8-A,0.5 µg/mL
same,MIC,S. aureus 13-8-A,0.5 µg/mL
same,MBC,S. pyogenes 7948-15,16 µg/mL
same,MIC,S. pyogenes 7948-15,16 µg/mL
same,MBC,S. epidermidis (17917),1 µg/mL
same,MIC,S. epidermidis (17917),1 µg/mL
same,MBC,S. aureus 24-81,0.5 µg/mL
same,MIC,S. aureus 24-81,0.5 µg/mL
same,MBC,S. aureus 59-81,1 µg/mL
same,MIC,S. aureus 59-81,1 µg/mL
same,MBC,S. enterococcus 0-2-13; Enterococcus,16 µg/mL
same,MIC,S. enterococcus 0-2-13; Enterococcus,0.25 µg/mL
same,MIC50,S. edidermidis,1 µg/mL
same,MIC90,S. edidermidis,1 µg/mL
same,MBC,S. edidermidis; read-out: MBC 50%,1 µg/mL
same,MBC,S. edidermidis; read-out: MBC 90%,2 µg/mL
same,MBC,S. edidermidis; read-out: MBC Range,1 to 2 µg/mL
same,MIC,S. edidermidis,1 to 2 µg/mL
"COc1cccc(OC)c1C(=O)N[C@@H]1C(=O)N2[C@@H]1SC(C)(C)[C@@H]2C(=O)O [Methicillin, 6-(2,6-dimethoxybenzamido)penicillanic acid sodium salt]",MBC,"S. aureus 21-81A; S. aureus 21-81A, read-out: MBC",1 µg/mL
same,MIC,"S. aureus 21-81A; S. aureus 21-81A, read-out: MIC",1 µg/mL
same,MBC,"S. epidermidis 2-1-B; S. epidermidis 2-1-B, read-out: MBC",2 µg/mL
same,MIC,"S. epidermidis 2-1-B; S. epidermidis 2-1-B, read-out: MIC",1 µg/mL
same,MBC,"S. aureus 41-81; S. aureus 41-81, read-out: MBC",1 µg/mL
same,MIC,"S. aureus 41-81; S. aureus 41-81, read-out: MIC",1 µg/mL
same,MBC,"S. aureus 4-81; S. aureus 4-81, read-out: MBC",2 µg/mL
same,MIC,"S. aureus 4-81; S. aureus 4-81, read-out: MIC",2 µg/mL
same,MBC,"S. epidermidis (12228); S. epidermidis ATCC No. 12228, read-out: MBC",4 µg/mL
same,MIC,"S. epidermidis (12228); S. epidermidis ATCC No. 12228, read-out: MIC",4 µg/mL
same,MBC,"S. aureus VA16951; S. aureus VA16951, read-out: MBC",8 µg/mL
same,MIC,"S. aureus VA16951; S. aureus VA16951, read-out: MIC",4 µg/mL
same,MBC,"S. pneumoniae Type I; S. pneumoniae Type I, read-out: MBC",≤ 0.06 µg/mL
same,MIC,"S. pneumoniae Type I; S. pneumoniae Type I, read-out: MIC",≤ 0.06 µg/mL
same,MBC,"S. faecalis (8043); S. faecalis ATCC No. 8043, read-out: MBC",> 125 µg/mL
same,MIC,"S. faecalis (8043); S. faecalis ATCC No. 8043, read-out: MIC",> 125 µg/mL
same,MBC,"S. faecalis 4510; S. faecalis 4510, read-out: MBC",64 µg/mL
same,MIC,"S. faecalis 4510; S. faecalis 4510, read-out: MIC",64 µg/mL
same,MBC,"S. aureus (25923); S. aureus ATCC No. 25923, read-out: MBC",2 µg/mL
same,MIC,"S. aureus (25923); S. aureus ATCC No. 25923, read-out: MIC",2 µg/mL
same,MBC,"S. aureus Smith; S. aureus Smith, read-out: MBC",1 µg/mL
same,MIC,"S. aureus Smith; S. aureus Smith, read-out: MIC",1 µg/mL
same,MBC,"S. epidermidis 1-3-H; S. epidermidis 1-3-H, read-out: MBC",4 µg/mL
same,MIC,"S. epidermidis 1-3-H; S. epidermidis 1-3-H, read-out: MIC",2 µg/mL
same,MBC,"S. aureus S-234; S. aureus S-234, read-out: MBC",32 µg/mL
same,MIC,"S. aureus S-234; S. aureus S-234, read-out: MIC",8 µg/mL
same,MBC,"S. aureus 39881; S. aureus 39881, read-out: MBC",> 125 µg/mL
same,MIC,"S. aureus 39881; S. aureus 39881, read-out: MIC",125 µg/mL
same,MBC,"S. aureus 13-8-A; S. aureus 13-8-A, read-out: MBC",2 µg/mL
same,MIC,"S. aureus 13-8-A; S. aureus 13-8-A, read-out: MIC",1 µg/mL
same,MBC,"S. pyogenes 7948-15; S. pyogenes 7948-15, read-out: MBC",0.125 µg/mL
same,MIC,"S. pyogenes 7948-15; S. pyogenes 7948-15, read-out: MIC",0.25 µg/mL
same,MBC,"S. epidermidis (17917); S. epidermidis ATCC No. 17917, read-out: MBC",4 µg/mL
same,MIC,"S. epidermidis (17917); S. epidermidis ATCC No. 17917, read-out: MIC",4 µg/mL
same,MBC,"S. aureus 24-81; S. aureus 24-81, read-out: MBC",2 µg/mL
same,MIC,"S. aureus 24-81; S. aureus 24-81, read-out: MIC",1 µg/mL
same,MBC,"S. aureus 59-81; S. aureus 59-81, read-out: MBC",64 µg/mL
same,MIC,"S. aureus 59-81; S. aureus 59-81, read-out: MIC",32 µg/mL
same,MBC,"S. enterococcus 0-2-13; S. enterococcus 0-2-13, read-out: MBC",8 µg/mL
same,MIC,"S. enterococcus 0-2-13; S. enterococcus 0-2-13, read-out: MIC",8 µg/mL
same,MBC,"S. edidermidis; 5 S. edidermidis strains, read-out: MBC 50%",4 µg/mL
same,MBC,"S. edidermidis; 5 S. edidermidis strains, read-out: MBC 90%",4 µg/mL
same,MBC,"S. edidermidis; 5 S. edidermidis strains, read-out: MBC Range",2 to 4 µg/mL
same,MIC50,"S. edidermidis; 5 S. edidermidis strains, read-out: MIC 50%",2 µg/mL
same,MIC90,"S. edidermidis; 5 S. edidermidis strains, read-out: MIC 90%",4 µg/mL
same,MIC,S. edidermidis; 5 S. edidermidis strains,1 to 4 µg/mL
